Experimental data from ChEMBL document CHEMBL3991601, “The target landscape of clinical kinase drugs” (Science, 2017).
The source made the active and inactive calls. Rule as the data show it: actives have a measured Kd and inactives only a lower limit.

Biological target: T1, General transcription and DNA repair factor IIH helicase subunit XPD (Homo sapiens, UniProt P18074)
T1 sequence (P18074 whole entry): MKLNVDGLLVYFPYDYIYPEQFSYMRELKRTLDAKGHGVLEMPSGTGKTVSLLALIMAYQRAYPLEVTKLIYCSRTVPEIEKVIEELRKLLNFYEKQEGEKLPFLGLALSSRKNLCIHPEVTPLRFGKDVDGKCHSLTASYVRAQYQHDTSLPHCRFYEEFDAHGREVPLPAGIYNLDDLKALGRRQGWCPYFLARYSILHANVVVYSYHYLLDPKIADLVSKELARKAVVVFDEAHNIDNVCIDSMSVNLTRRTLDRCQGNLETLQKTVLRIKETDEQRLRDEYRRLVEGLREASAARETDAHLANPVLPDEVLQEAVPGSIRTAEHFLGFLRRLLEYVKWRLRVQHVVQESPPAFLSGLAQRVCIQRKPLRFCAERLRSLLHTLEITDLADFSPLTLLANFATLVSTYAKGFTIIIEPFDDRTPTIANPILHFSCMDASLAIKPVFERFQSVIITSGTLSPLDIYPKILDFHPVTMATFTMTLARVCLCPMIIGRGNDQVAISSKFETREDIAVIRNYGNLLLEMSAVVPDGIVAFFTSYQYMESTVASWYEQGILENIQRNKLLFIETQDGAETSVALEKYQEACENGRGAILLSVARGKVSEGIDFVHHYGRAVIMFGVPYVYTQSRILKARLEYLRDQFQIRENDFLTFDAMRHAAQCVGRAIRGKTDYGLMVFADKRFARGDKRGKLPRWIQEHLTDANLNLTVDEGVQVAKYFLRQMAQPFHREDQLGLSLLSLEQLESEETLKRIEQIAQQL
Also: in the data inactive means no Kd found up to 30 µM.

Kd	SMILES
> 30 µM (inactive)	CCOc1ccn(-c2ccc(F)cc2)c(=O)c1C(=O)Nc1ccc(Oc2ccnc(N)c2Cl)c(F)c1 [BMS-777607]
> 30 µM (inactive)	COc1cc2c(Oc3ccc4[nH]c(C)cc4c3F)ncnc2cc1OCCCN1CCCC1 [CEDIRANIB]
> 30 µM (inactive)	FC(F)(F)c1ccc(CNc2ccc(Cc3c[nH]c4ncc(Cl)cc34)cn2)cn1 [PEXIDARTINIB]

SMILES	Kd
C=CC(=O)Nc1cc(Nc2nccc(-c3cn(C)c4ccccc34)n2)c(OC)cc1N(C)CCN(C)C [OSIMERTINIB]	> 30 µM (inactive)
